Experiments:
MCF-7 cells = test: Breast Cancer Cell Viability Assays (MCF-7, CellTiter-Glo); format: cell-based; settings: 5 days' compound exposure; for IC50: Homo sapiens, MCF7, 120 h
Method in brief: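 MCF-7 cells (320/well, RPMI with 10% FBS) exposed for 5 days to an eleven-point semilog series, 0.3–0.000003 μM final. Viability read by CellTiter-Glo luminescence, expressed as background-corrected percent of untreated cells.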

ER-α in MCF-7 cells = target: T1, ER-α in MCF-7 cells (Homo sapiens, UniProt P03372); test: Breast Cancer Cell ER-α In Cell Western Assay (SP1); format: cell-based; settings: 4 or 24 hr post compound addition; for Emax: MCF7, SP1 antibody, read-out: ER-α In Cell Western Assay (SP1) Max Response; for DC50: SP1 antibody, read-out: ER-α In Cell Western Assay (SP1) IC50
T1 construct: endogenous in cells; host or cells: MCF-7
T1 sequence (P03372 1-595): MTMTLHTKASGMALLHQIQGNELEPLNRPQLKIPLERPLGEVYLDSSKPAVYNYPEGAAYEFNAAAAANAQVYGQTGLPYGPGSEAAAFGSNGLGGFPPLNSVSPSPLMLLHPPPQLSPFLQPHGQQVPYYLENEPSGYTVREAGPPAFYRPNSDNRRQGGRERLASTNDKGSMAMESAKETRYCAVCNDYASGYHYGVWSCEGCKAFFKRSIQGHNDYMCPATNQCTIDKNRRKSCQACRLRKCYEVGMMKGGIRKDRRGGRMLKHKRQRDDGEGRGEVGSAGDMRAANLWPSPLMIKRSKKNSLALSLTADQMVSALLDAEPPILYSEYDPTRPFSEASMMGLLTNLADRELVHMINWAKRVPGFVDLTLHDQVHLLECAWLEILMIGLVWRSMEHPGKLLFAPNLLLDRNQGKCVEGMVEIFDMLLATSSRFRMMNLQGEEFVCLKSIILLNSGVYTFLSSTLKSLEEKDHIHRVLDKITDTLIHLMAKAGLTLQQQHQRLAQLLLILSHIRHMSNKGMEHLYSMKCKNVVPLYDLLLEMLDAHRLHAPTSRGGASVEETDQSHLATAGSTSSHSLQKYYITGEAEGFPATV
Method in brief: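 MCF-7 cells in charcoal-stripped FBS medium, treated with 11-point semilog dilutions (0.3–0.000003 μM final) for 4 or 24 h. Fixed cells immunostained with SP1 antibody (800 nm) and DRAQ5 DNA (700 nm); ER/DNA ratio expressed as % of untreated cells.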

SMILES	IC50 (MCF-7 cells) [nM]	Emax (ER-α in MCF-7 cells) [%]	DC50 (ER-α in MCF-7 cells) [nM]	MCF7 Viability Assay Max Response (MCF-7 cells)
Cc1cc(CO)ccc1/C(=C(\c1ccc(/C=C/C(=O)O)cc1)c1ccc2[nH]nc(F)c2c1)C1CCC1 [Example 217, (E)-3-(4-((E)-2-Cyclobutyl-1-(3-fluoro-1H-indazol-5-yl)-2-(4-(hydroxymethyl)-2-methylphenyl)vinyl)phenyl)acrylic acid]	≤ 100	≥ 40	≤ 100	++ (++ = a single % value ≧ 40%)
O=C(O)/C=C/c1ccc(/C(=C(\c2ccc(OC(F)(F)F)cc2Cl)C2CCC2)c2ccc3[nH]nc(F)c3c2)cn1 [Example 272, (E)-3-(5-((Z)-2-(2-Chloro-4-(trifluoromethoxy)phenyl)-2-cyclobutyl-1-(3-fluoro-1H-indazol-5-yl)vinyl)pyridin-2-yl)acrylic acid]	≤ 100	≥ 40	≤ 100	++ (++ = a single % value ≧ 40%)
COc1ccc(/C(=C(\c2ccc(/C=C/C(=O)O)cc2)c2ccc3[nH]ncc3c2)C2CCC2)c(C)c1 [Example 64, (E)-3-(4-((E)-2-Cyclobutyl-1-(1H-indazol-5-yl)-2-(4-methoxy-2-methylphenyl)vinyl)phenyl)acrylic acid]	≤ 100	≥ 40	≤ 100	++ (++ = a single % value ≧ 40%)
O=C(O)/C=C/c1ccc(/C(=C(\c2ccc(F)cc2Cl)C2CCC2)c2ccc3c(c2)CNC3=O)cc1 [Example 5, (E)-3-(4-((E)-2-(2-Chloro-4-fluorophenyl)-2-cyclobutyl-1-(1-oxoisoindolin-5-yl)vinyl)phenyl)acrylic acid]	≤ 100	≥ 40	≤ 100	++ (++ = a single % value ≧ 40%)
Fc1n[nH]c2ccc(/C(=C(/c3ccccc3)C3CCC3)c3ccc(/C=C/c4ccn[nH]4)cc3)cc12 [Example 207, 5-((E)-1-(4-((E)-2-(1H-Pyrazol-5-yl)vinyl)phenyl)-2-cyclobutyl-2-phenylvinyl)-3-fluoro-1H-indazole]	> 100	≥ 40	≤ 100	+ (+ = a single % value < 40%)
O=C(O)/C=C/c1ccc(/C(=C(\c2ncccc2C(F)(F)F)C2CCC2)c2ccc3[nH]nc(F)c3c2)cc1 [Example 145, (E)-3-(4-((E)-2-Cyclobutyl-1-(3-fluoro-1H-indazol-5-yl)-2-(3-(trifluoromethyl)pyridin-2-yl)vinyl)phenyl)acrylic acid]	≤ 100	≥ 40	≤ 100	++ (++ = a single % value ≧ 40%)
Cc1cc(C#N)ccc1/C(=C(\c1ccc(/C=C/C(=O)O)cc1)c1ccc2[nH]ncc2c1)C1CCC1 [Example 55, (E)-3-(4-((E)-2-(4-Cyano-2-methylphenyl)-2-cyclobutyl-1-(1H-indazol-5-yl)vinyl)phenyl)acrylic acid]	≤ 100	≥ 40	≤ 100	++ (++ = a single % value ≧ 40%)
COc1ccc(/C(=C(\c2ccc(/C=C/C(=O)O)cc2)c2ccc3[nH]ncc3c2)C2CCC2)c(Cl)c1 [Example 216, (E)-3-(4-((E)-2-(2-Chloro-4-methoxyphenyl)-2-cyclobutyl-1-(1H-indazol-5-yl)vinyl)phenyl)acrylic acid]	≤ 100	≥ 40	≤ 100	++ (++ = a single % value ≧ 40%)
O=C(O)/C=C/c1ccc(/C(=C(\c2ccccc2)C2CCC2)c2ccc3[nH]nc(F)c3c2)nc1 [Example 160, (E)-3-(6-((Z)-2-Cyclobutyl-1-(3-fluoro-1H-indazol-5-yl)-2-phenylvinyl)pyridin-3-yl)acrylic acid]	≤ 100	≥ 40	≤ 100	++ (++ = a single % value ≧ 40%)
CCOc1cc(C)c(/C(=C(\c2ccc(/C=C/C(=O)O)cc2)c2ccc3[nH]nc(F)c3c2)C2CC2)cn1 [Example 117, (E)-3-(4-((E)-2-Cyclopropyl-2-(6-ethoxy-4-methylpyridin-3-yl)-1-(3-fluoro-1H-indazol-5-yl)vinyl)phenyl)acrylic acid]	≤ 100	≥ 40	≤ 100	++ (++ = a single % value ≧ 40%)

Second part, led by results:

IC50 (MCF-7 cells) [nM]	Emax (ER-α in MCF-7 cells) [%]	DC50 (ER-α in MCF-7 cells) [nM]	SMILES	MCF7 Viability Assay Max Response (MCF-7 cells)
≤ 100	≥ 40	≤ 100	CCOc1ccc(/C(=C(\c2ccc(/C=C/C(=O)O)cc2)c2ccc3[nH]nc(F)c3c2)C2CCC2)c(Cl)c1 [Example 230, (E)-3-(4-((E)-2-(2-Chloro-4-ethoxyphenyl)-2-cyclobutyl-1-(3-fluoro-1H-indazol-5-yl)vinyl)phenyl)acrylic acid]	++ (++ = a single % value ≧ 40%)
≤ 100	≥ 40	≤ 100	N#Cc1cc(F)ccc1/C(=C(\c1ccc(/C=C/C(=O)O)cc1)c1ccc2scnc2c1)C1CCC1 [Example 90, (E)-3-(4-((E)-1-(Benzo[d]thiazol-5-yl)-2-(2-cyano-4-fluorophenyl)-2-cyclobutylvinyl)phenyl)acrylic acid]	++ (++ = a single % value ≧ 40%)
≤ 100	≥ 40	≤ 100	COc1nc(/C=C/C(=O)O)ccc1/C(=C(\c1ccccc1)C1CCC1)c1ccc2[nH]nc(F)c2c1 [Example 164, (E)-3-(5-((Z)-2-Cyclobutyl-1-(3-fluoro-1H-indazol-5-yl)-2-phenylvinyl)-6-methoxypyridin-2-yl)acrylic acid]	++ (++ = a single % value ≧ 40%)
≤ 100	≥ 40	≤ 100	COc1ccc(/C(=C(\c2ccc(/C=C/C(=O)O)cc2)c2ccc3[nH]nc(F)c3c2)C2CC2)c(F)c1 [Example 113, (E)-3-(4-((E)-2-Cyclopropyl-1-(3-fluoro-1H-indazol-5-yl)-2-(2-fluoro-4-methoxyphenyl)vinyl)phenyl)acrylic acid]	++ (++ = a single % value ≧ 40%)
